Measured values: article PMC9120017, “Inhibition mechanism of the chloride channel TMEM16A by the pore blocker 1PBC” (Nature Communications, 2022)
Where two headings read alike, the source gives them in different places.

Biological target: T1, mouse TMEM16A mutant N546A (Mus musculus, UniProt Q8BHY3, N546A)
T1 construct: expressed in transfected cells; host or cells: HEK293T
T1 sequence (Q8BHY3 1-960 N546A): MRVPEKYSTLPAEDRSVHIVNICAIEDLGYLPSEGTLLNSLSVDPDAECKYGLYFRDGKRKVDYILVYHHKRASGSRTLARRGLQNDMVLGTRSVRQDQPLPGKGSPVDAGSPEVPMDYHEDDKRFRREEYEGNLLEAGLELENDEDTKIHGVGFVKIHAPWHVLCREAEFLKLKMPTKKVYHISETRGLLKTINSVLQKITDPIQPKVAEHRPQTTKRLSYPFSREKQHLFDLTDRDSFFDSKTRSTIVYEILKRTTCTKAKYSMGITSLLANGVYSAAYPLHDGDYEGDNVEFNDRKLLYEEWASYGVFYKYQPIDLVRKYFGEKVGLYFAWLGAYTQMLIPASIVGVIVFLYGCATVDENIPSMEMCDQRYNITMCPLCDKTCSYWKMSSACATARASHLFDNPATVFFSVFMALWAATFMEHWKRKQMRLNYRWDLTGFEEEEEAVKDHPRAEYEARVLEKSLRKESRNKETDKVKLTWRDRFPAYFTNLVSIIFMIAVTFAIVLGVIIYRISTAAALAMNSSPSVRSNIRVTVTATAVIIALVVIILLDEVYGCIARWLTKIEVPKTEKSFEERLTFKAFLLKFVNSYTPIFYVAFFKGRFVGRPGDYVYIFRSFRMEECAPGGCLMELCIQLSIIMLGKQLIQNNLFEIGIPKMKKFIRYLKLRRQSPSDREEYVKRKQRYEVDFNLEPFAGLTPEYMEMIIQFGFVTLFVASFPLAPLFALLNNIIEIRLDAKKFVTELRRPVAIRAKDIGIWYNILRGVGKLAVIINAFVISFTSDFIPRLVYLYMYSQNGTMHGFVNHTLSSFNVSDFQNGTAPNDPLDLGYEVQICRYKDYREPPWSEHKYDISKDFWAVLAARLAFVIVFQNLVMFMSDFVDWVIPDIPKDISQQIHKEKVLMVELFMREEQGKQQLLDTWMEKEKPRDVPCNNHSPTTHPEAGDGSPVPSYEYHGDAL
Assay: Inside-out patch recording of 1PBC block, mutant N546A
Format: cell-based
Conditions: for remaining activity at 1 µM: 1PBC 1; for remaining activity at 1 µM / remaining activity at 3 µM / remaining activity at 10 µM: read-out: fraction of unblocked current; for remaining activity at 3 µM: 1PBC 3; for remaining activity at 10 µM: 1PBC 10
Protocol: HEK293T cells (ATCC CRL-1573) were maintained in Dulbecco’s modified Eagle’s medium (DMEM; Sigma-Aldrich) supplemented with 10 U ml^−1 penicillin, 0.1 mg ml^−1 streptomycin (Sigma-Aldrich), 2 mM L-glutamine (Sigma-Aldrich), and 10% FBS (Sigma-Aldrich) in a humidified atmosphere containing 5% CO2 at 37 °C. HEK293S GnTI^− cells (ATCC CRL-3022) were maintained in HyClone HyCell TransFx-H medium (GE Healthcare) supplemented with 10 U ml^−1 penicillin, 0.1 mg ml^−1 streptomycin, 4 mM L-glutamine, 0.15% poloxamer 188 (Sigma-Aldrich), and 1% FBS in an atmosphere containing 5% CO2 at 185 rpm at 37 °C. The ac splice variant of mouse TMEM16A (UniProt ID: Q8BHY3), mouse TMEM16B (UniProt ID: Q8CFW1), or mouse TMEM16F (UniProt ID: Q6P9J9) bearing a 3C cleavage site, a Venus YFP, a Myc tag, and a Streptavidin-binding peptide (SBP) downstream of the open reading frame in a modified pcDNA3.1 vector (Invitrogen) were used as described previously[21],[31]. Mutations were introduced using a modified QuikChange method[58] and were verified by sequencing.
HEK293T cells were transfected with 3–4 μg DNA per 6 cm Petri dish using the calcium phosphate co-precipitation method and were used within 24–96 h after transfection. Recordings were performed on inside-out patches excised from HEK293T cells expressing the construct of interest. Patch pipettes were pulled from borosilicate glass capillaries (O.D. 1.5 mm, I.D. 0.86 mm, Sutter Instrument) and were fire-polished with a microforge (Narishige) before use. Pipette resistance was typically 3–8 MΩ when filled with the recording solutions detailed below. Seal resistance was typically 4 GΩ or higher. Voltage-clamp recordings were made using Axopatch 200B, Digidata 1550, and Clampex 10.7 (Molecular Devices). Analog signals were filtered with the in-built 4-pole Bessel filter at 10 kHz and were digitized at 20 kHz. Solution exchange was achieved using a gravity-fed system through a theta glass pipette mounted on an ultra-fast piezo-driven stepper (Siskiyou). […] All recordings were performed at 20 °C.
A symmetrical ionic condition was used throughout. Stock solution with Ca^2+-EGTA contained 150 mM NaCl, 5.99 mM Ca(OH)2, 5 mM EGTA, and 10 mM HEPES at pH 7.40. Stock solution with EGTA contained 150 mM NaCl, 5 mM EGTA, and 10 mM HEPES at pH 7.40. Free Ca^2+ concentrations were adjusted by mixing the stock solutions at the required ratios calculated using the WEBMAXC program (http://web.stanford.edu/~cpatton/webmaxcS.htm). Patch pipettes were filled with the stock solution with Ca^2+-EGTA, which has a free Ca^2+ concentration of 1 mM. 1PBC (ChemBridge) stock was reconstituted in anhydrous DMSO (Sigma-Aldrich) at 100 mM and stored at −20 °C. Working solutions with 1PBC were prepared by serial dilution. Unless otherwise stated, experiments were performed at a saturating Ca^2+ concentration as shown in Supplementary Table 1 and the primary data were corrected for current rundown as described previously[21],[25].
Concentration-response relations, obtained from the ratio of the I-V plots before and after the application of the blocker, were fitted to the Hill equation,1 I/Imax=1/1+IC50/[blocker]^h where I/Imax is the normalized current responses, IC50 defines the concentration at which inhibition is at its half-maximum, and h is the Hill coefficient.

N#Cc1c(C(F)(F)F)cc(O)n2c1nc1ccccc12 [1PBC]
IC50 (0 mV, 2 µM Ca2+): 594 nM
remaining activity at 1 µM (0 mV): 35.3%
remaining activity at 1 µM (20 mV): 28.4%
remaining activity at 1 µM (40 mV): 22%
remaining activity at 1 µM (60 mV): 19.8%
remaining activity at 1 µM (80 mV): 18.3%
remaining activity at 1 µM (100 mV): 19.3%
remaining activity at 1 µM (120 mV): 20.4%
remaining activity at 1 µM (140 mV): 24.4%
remaining activity at 1 µM (-20 mV): 42.1%
remaining activity at 1 µM (-40 mV): 47.5%
remaining activity at 1 µM (-60 mV): 55.1%
remaining activity at 1 µM (-80 mV): 60.7%
remaining activity at 1 µM (-100 mV): 65.9%
remaining activity at 1 µM (-120 mV): 69.4%
remaining activity at 1 µM (-140 mV): 71.9%
remaining activity at 3 µM (0 mV): 16.8%
remaining activity at 3 µM (20 mV): 12.7%
remaining activity at 3 µM (40 mV): 11%
remaining activity at 3 µM (60 mV): 8.55%
remaining activity at 3 µM (80 mV): 9.38%
remaining activity at 3 µM (100 mV): 9.83%
remaining activity at 3 µM (120 mV): 10.5%
remaining activity at 3 µM (140 mV): 17.6%
remaining activity at 3 µM (-20 mV): 20.8%
remaining activity at 3 µM (-40 mV): 25.6%
remaining activity at 3 µM (-60 mV): 31.9%
remaining activity at 3 µM (-80 mV): 36.9%
remaining activity at 3 µM (-100 mV): 42.7%
remaining activity at 3 µM (-120 mV): 48.5%
remaining activity at 3 µM (-140 mV): 51.2%
remaining activity at 10 µM (0 mV): 5.97%
remaining activity at 10 µM (20 mV): 5.12%
remaining activity at 10 µM (40 mV): 3.23%
remaining activity at 10 µM (60 mV): 3.5%
remaining activity at 10 µM (80 mV): 3.36%
remaining activity at 10 µM (100 mV): 5.03%
remaining activity at 10 µM (120 mV): 4.78%
remaining activity at 10 µM (140 mV): 10.2%
remaining activity at 10 µM (-20 mV): 6.81%
remaining activity at 10 µM (-40 mV): 10.2%
remaining activity at 10 µM (-60 mV): 13.2%
remaining activity at 10 µM (-80 mV): 16.4%
remaining activity at 10 µM (-100 mV): 19.7%
remaining activity at 10 µM (-120 mV): 24.7%
remaining activity at 10 µM (-140 mV): 27.4%
IC50 (20 mV, 2 µM Ca2+): 431 nM
IC50 (40 mV, 2 µM Ca2+): 326 nM
IC50 (60 mV, 2 µM Ca2+): 269 nM
log-fold IC50 (change of mutant vs WT) (80 mV): -0.9263
IC50 (80 mV, 2 µM Ca2+): 239 nM
IC50 (100 mV, 2 µM Ca2+): 233 nM
IC50 (120 mV, 2 µM Ca2+): 238 nM
IC50 (140 mV, 2 µM Ca2+): 315 nM
IC50 (-20 mV, 2 µM Ca2+): 805 nM
IC50 (-40 mV, 2 µM Ca2+): 1020 nM
IC50 (-60 mV, 2 µM Ca2+): 1360 nM
IC50 (-80 mV, 2 µM Ca2+): 1720 nM
IC50 (-100 mV, 2 µM Ca2+): 2170 nM
IC50 (-120 mV, 2 µM Ca2+): 2750 nM
IC50 (-140 mV, 2 µM Ca2+): 3100 nM
IC50 (N546A, V 0 mV): 594 nM
IC50 (N546A, V 20 mV): 431 nM
IC50 (N546A, V 40 mV): 326 nM
IC50 (N546A, V 60 mV): 269 nM
IC50 (N546A, V 80 mV): 239 nM
IC50 (N546A, V 100 mV): 233 nM
IC50 (N546A, V 120 mV): 238 nM
IC50 (N546A, V 140 mV): 315 nM
IC50 (N546A, V -20 mV): 805 nM
IC50 (N546A, V -40 mV): 1020 nM
IC50 (N546A, V -60 mV): 1360 nM
IC50 (N546A, V -80 mV): 1720 nM
IC50 (N546A, V -100 mV): 2170 nM
IC50 (N546A, V -120 mV): 2750 nM
IC50 (N546A, V -140 mV): 3100 nM
